Experimental data published in the supplement of paper PMC10307832.

How the values were obtained:
Test in all cases: relative viability (nuclei count vs DMSO), 5 days (fraction); higher = more cells survive
VE-821 + Crizotinib = compound: CS(=O)(=O)c1ccc(-c2cnc(N)c(C(=O)Nc3ccccc3)n2)cc1 [VE-821] + C[C@@H](Oc1cc(-c2cnn(C3CCNCC3)c2)cnc1N)c1c(Cl)ccc(F)c1Cl [Crizotinib] (partner 1 µM)
Summary of the method: (§1)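 A single step with final 0.05% Triton X-100, 1% formaldehyde and 1 ug/ml Hoechst fixed the cells and stained nuclei 5 days after treatment. Lung cancer cell lines in 1536-well plates had been treated by pin tool the day after seeding with one drug alone or a fixed anchor-drug dose plus five library-drug doses (not always all listed) in √10 steps, and nuclei were counted on 4× images. Relative viability is the ratio of nuclei in treated wells to nuclei in vehicle wells, taken as the median of duplicate plates.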

VE-821 + Vorinostat = compound: CS(=O)(=O)c1ccc(-c2cnc(N)c(C(=O)Nc3ccccc3)n2)cc1 [VE-821] + O=C(CCCCCCC(=O)Nc1ccccc1)NO [Vorinostat] (partner 1 µM)
Summary of the method: as §1

Ruxolitinib + Navitoclax = compound: N#CC[C@H](C1CCCC1)n1cc(-c2ncnc3[nH]ccc23)cn1 [Ruxolitinib] + CC1(C)CCC(c2ccc(Cl)cc2)=C(CN2CCN(c3ccc(C(=O)NS(=O)(=O)c4ccc(N[C@H](CCN5CCOCC5)CSc5ccccc5)c(S(=O)(=O)C(F)(F)F)c4)cc3)CC2)C1 [Navitoclax] (partner 0.5 µM)
Summary of the method: as §1

Ruxolitinib + Olaparib = compound: N#CC[C@H](C1CCCC1)n1cc(-c2ncnc3[nH]ccc23)cn1 [Ruxolitinib] + O=C(c1cc(Cc2n[nH]c(=O)c3ccccc23)ccc1F)N1CCN(C(=O)C2CC2)CC1 [Olaparib] (partner 8 µM)
Summary of the method: as §1

Row | Cell Line | relative viability (VE-821 + Crizotinib; first compound 0.08 µM) | relative viability (VE-821 + Crizotinib; first compound 0.253 µM) | relative viability (VE-821 + Crizotinib; first compound 0.8 µM) | relative viability (VE-821 + Crizotinib; first compound 2.53 µM) | relative viability (VE-821 + Crizotinib; first compound 8 µM) | relative viability (VE-821 + Vorinostat; first compound 0.08 µM) | relative viability (VE-821 + Vorinostat; first compound 0.253 µM) | relative viability (VE-821 + Vorinostat; first compound 0.8 µM) | relative viability (VE-821 + Vorinostat; first compound 2.53 µM) | relative viability (VE-821 + Vorinostat; first compound 8 µM) | relative viability (Ruxolitinib + Navitoclax; first compound 0.253 µM) | relative viability (Ruxolitinib + Navitoclax; first compound 0.8 µM) | relative viability (Ruxolitinib + Navitoclax; first compound 2.53 µM) | relative viability (Ruxolitinib + Navitoclax; first compound 8 µM) | relative viability (Ruxolitinib + Olaparib; first compound 0.253 µM) | relative viability (Ruxolitinib + Olaparib; first compound 0.8 µM) | relative viability (Ruxolitinib + Olaparib; first compound 2.53 µM) | relative viability (Ruxolitinib + Olaparib; first compound 8 µM) | relative viability (Ruxolitinib + Navitoclax; first compound 0.08 µM) | relative viability (Ruxolitinib + Olaparib; first compound 0.08 µM)
1 | PC-14 | 1.06 | 0.846 | 0.856 | 0.916 | 0.877 | 0.95 | 0.68 | 0.613 | 0.639 | 0.255 | 1.03 | 1.01 | 0.927 | 0.723 | 0.302 | 0.233 | 0.353 | 0.298 |  | 
2 | A549 | 0.896 | 0.656 | 0.607 | 0.689 | 0.271 |  |  |  |  |  | 1.16 | 1.21 | 0.961 | 0.508 | 0.36 | 0.35 | 0.331 | 0.0796 | 1.2 | 0.226
3 | NCI-H2342 |  |  |  |  |  | 0.702 | 0.673 | 0.723 | 0.774 | 0.841 |  |  |  |  | 0.533 | 0.413 | 0.498 | 0.398 |  | 0.46
4 | NCI-H520 | 0.967 | 0.826 |  | 0.867 | 0.503 | 0.614 | 0.779 | 0.719 | 0.603 | 0.353 | 1.01 | 1.38 | 1.22 | 0.782 | 0.375 | 0.366 | 0.343 | 0.284 |  | 0.298
5 | NCI-H2405 | 1.01 | 0.81 | 0.776 | 0.924 | 0.788 | 1.09 | 0.977 | 0.992 | 0.984 | 0.859 | 0.771 | 1.28 | 0.456 | 0.471 | 0.838 | 0.882 | 0.633 | 0.573 |  | 0.931
6 | PC-3 [JPC-3] | 1.06 | 0.968 | 1.1 | 0.98 | 0.963 | 0.815 | 0.734 | 0.858 | 0.883 | 0.664 | 0.771 | 0.771 | 0.757 | 0.73 | 1.07 | 1.13 | 1.03 | 0.922 | 0.69 | 
7 | EBC-1 | 0.181 | 0.189 | 0.155 | 0.179 | 0.202 |  |  |  |  |  | 0.435 | 0.402 | 0.347 | 0.237 | 0.726 | 0.77 | 0.708 | 0.533 | 0.372 | 0.718
8 | NCI-H522 |  |  |  |  |  | 1.02 | 0.811 | 0.921 | 0.994 | 0.732 |  |  |  |  | 0.719 | 0.704 | 0.468 | 0.705 |  | 0.632
9 | NCI-H1792 | 0.831 | 0.99 | 0.947 | 1.01 | 0.949 |  |  |  |  |  | 0.644 | 0.595 | 0.473 | 0.519 | 0.44 | 0.377 | 0.384 | 0.236 | 0.658 | 0.303
10 | Calu-6 | 0.97 | 0.844 | 0.795 | 0.684 | 0.466 |  |  |  |  |  | 0.858 | 0.862 | 0.767 | 0.294 | 0.62 | 0.577 |  | 0.39 | 0.836 | 0.575
11 | NCI-H1793 |  |  |  |  |  | 0.996 | 0.616 |  | 0.837 | 0.615 | 0.374 | 0.486 | 0.621 | 0.266 | 0.8 | 1.07 | 0.89 | 0.706 | 0.494 | 0.769
12 | NCI-H650 | 0.969 | 0.969 | 0.675 | 0.889 | 0.642 | 0.443 | 0.403 | 0.395 | 0.471 | 0.409 |  |  |  |  | 0.436 | 0.392 | 0.384 | 0.314 |  | 0.379
13 | NCI-H1395 |  |  |  |  |  | 0.69 | 0.647 | 0.705 | 0.638 | 0.43 | 0.993 | 1.17 | 1.13 | 0.944 | 0.419 | 0.456 | 0.443 | 0.476 |  | 0.44
14 | NCI-H1648 |  |  |  |  |  | 0.483 |  | 0.485 | 0.532 | 0.641 |  |  |  |  | 0.852 | 1.11 | 1.35 | 1.18 |  | 0.854
15 | NCI-H1703 | 1.04 | 0.578 | 0.688 | 0.336 | 0.248 |  |  |  |  |  | 1.23 | 1.23 | 0.562 | 0.611 | 0.439 | 0.55 | 0.237 | 0.315 | 1.18 | 0.44
16 | ABC-1 | 1.18 | 1.1 | 0.904 | 0.777 | 0.58 | 1.32 | 1.06 | 1.11 | 1.26 | 1.01 |  |  |  |  | 0.886 | 0.892 | 0.505 | 1.02 |  | 
17 | NCI-H1299 | 0.986 | 0.967 | 0.919 | 0.903 | 0.786 |  |  |  |  |  | 1.05 | 1.02 | 1.02 | 0.85 | 0.998 | 0.963 | 0.985 | 0.757 | 1.03 | 0.939
18 | NCI-H661 | 1.08 | 0.942 | 1.05 | 0.997 | 1.06 | 0.839 | 0.836 | 0.815 | 0.783 | 0.627 |  |  |  |  | 0.81 | 0.735 | 0.808 | 0.614 |  | 0.771
